Source: patent EP0411751A1, “Renin inhibitory peptides” (Beecham Group p.l.c., priority 1989, dated 1991)

molecular target: T1, human renin (Homo sapiens, UniProt P00797); assay: In vitro human renin inhibition (renin activity in human plasma, angiotensin I radioimmunoassay); assay type: biochemical; conditions: angiotensin I difference between halves incubated at 37° and 4° for 2 h, linear regression of at least three concentrations, read-out: IC₅₀
T1 construct: from tissue; host or cells: human plasma from blood of healthy volunteers
T1 sequence (P00797 67-406): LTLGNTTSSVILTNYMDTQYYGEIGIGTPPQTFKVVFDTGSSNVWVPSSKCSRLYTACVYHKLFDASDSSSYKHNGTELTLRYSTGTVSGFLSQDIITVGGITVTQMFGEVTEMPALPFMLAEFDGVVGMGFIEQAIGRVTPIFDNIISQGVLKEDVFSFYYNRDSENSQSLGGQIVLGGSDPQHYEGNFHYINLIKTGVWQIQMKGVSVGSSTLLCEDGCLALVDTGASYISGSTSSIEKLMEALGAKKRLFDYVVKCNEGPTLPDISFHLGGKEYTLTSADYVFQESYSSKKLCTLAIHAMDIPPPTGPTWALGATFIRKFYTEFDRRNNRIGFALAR
Protocol: In vitro human renin inhibition
Renin inhibitory activity was estimated as the percentage change in renin activity in human plasma in the presence and absence of compound. The source of plasma was blood taken from healthy volunteers. Renin activity was defined by the difference in angiotensin I levels between two halves of a sample, one incubated at 37^o and the other at 4^o for 2 h. Angiotensin I levels were measured using a ¹²⁵I- angiotensin I radioimmunoassay kit (NEN/DuPont, Stevenage). Results were calculated as the mean of at least two, duplicate determinations and IC₅₀ values were calculated by linear regression analysis of at least three concentrations of compound.

SMILES	IC50 [µM]
CC(C)CNC(=O)C[C@H](O)[C@H](CC1CCCCC1)NC(=O)[C@H](CC(C)C)NC(=O)[C@H](Cc1ccccc1)NC(=O)CC1CCOc2ccccc21 (stereo partly drawn) [Example E1, Chromanyl-4-acetyl-Phe-Leu-ACHPA isobutylamide .0.5H₂O]	0.047
Cc1ccc2c(c1)N(CC(=O)N[C@@H](Cc1ccccc1)C(=O)N[C@@H](CC(C)C)C(=O)N[C@@H](CC1CCCCC1)[C@@H](O)CC(=O)NCC(C)C)C(=O)CO2 [Example E2, 2,3-Dihydro-6-methyl-3-oxo-4H-1,4-benzoxazine-4-acetyl-Phe-Leu-ACHPA isobutylamide .H₂O]	0.22
CC(C)CNC(=O)C[C@H](O)[C@H](CC1CCCCC1)NC(=O)[C@H](CC(C)C)NC(=O)[C@H](Cc1ccccc1)NC(=O)CCN1C(=O)CS(=O)(=O)c2ccccc21 [Example E7, 2,3-Dihydro-1,1,3-trioxo-4H-1,4-benzothiazine-4-propanoyl-Phe-Leu-ACHPA isobutylamide .0.5H₂O]	0.013
CC(C)C[C@H](NC(=O)[C@H](Cc1ccccc1)NC(=O)CCN1C(=O)COc2ccc(CN)cc21)C(=O)N[C@@H](CC1CCCCC1)[C@@H](O)CC(=O)NCCCn1ccnc1 [Example E11, 6-(Aminomethyl)-2,3-dihydro-3-oxo-4H-1,4-benzoxazine-4-propanoyl-Phe-Leu-ACHPA 3-(1imidazolyl)propylamide .3CF₃CO₂H]	0.025
CC(C)C[C@H](NC(=O)[C@H](Cc1ccccc1)NC(=O)CCN1C(=O)COc2ccc(C(=O)O)cc21)C(=O)N[C@@H](CC1CCCCC1)[C@@H](O)CC(=O)NCCCn1ccnc1 [Example E15, 6-Carboxy-2,3-dihydro-3-oxo-4H-1,4-benzoxazine-4-propanoyl-Phe-Leu-ACHPA 3-(1-imidazolyl)propylamide]	0.042
CC(C)C[C@H](NC(=O)[C@H](Cc1ccccc1)NC(=O)CCN1C(=O)CCSc2ccccc21)C(=O)N[C@@H](CC1CCCCC1)[C@@H](O)CC(=O)NCCCn1ccnc1 [Example E18, 3,4-Dihydro-4-oxo-1,5-benzothiazepine-5(2H)-propanoyl-Phe-Leu-ACHPA 3-(1-imidazolyl)propylamide.0.5(CHCl₃)]	0.008
CC(C)C[C@H](NC(=O)[C@H](Cc1ccccc1)NC(=O)CCN1C(=O)CCS(=O)(=O)c2ccccc21)C(=O)N[C@@H](CC1CCCCC1)[C@@H](O)CC(=O)NCCCn1ccnc1 [Example E19, 3,4-Dihydro-1,1,4-trioxo-1,5-benzothiazepine-5(2H)-propanoyl-Phe-Leu-ACHPA 3-(1-imidazolyl)propylamide]	0.022
